Data published in patent publication US8318781B2, “G-protein-conjugated receptor agonist” (Japan Science and Technology Agency, priority 2007, dated 2012).
Read-outs that look alike come from different tables or passages of the source.

Assays:
[1] = test system: GLP-1 (Glucagon-Like Peptide) release; assay: GLP-1 (glucagon-like peptide) release test in mice; assay type: in vivo; conditions: C57BL/6J mice; for Average GLP-1 concentration: given into the colon by catheter, portal vein blood after 15 minutes, ELISA, NCG21 suspension in PEG at 100 mmol/g body weight; for increase of GLP-1 concentration in the portal blood relative to control DMSO: portal blood 15 minutes after colonic administration
Method: C57BL/6J mice (8 weeks old) were anesthetized with Nembutal (pentobarbital sodium) (60 mg/kg body weight), a catheter was inserted into the colon through the celiotomy, and the solution of the test compound was administered through the catheter (NCG21 as a suspension in PEG at 100 mmol/g body weight, at a rate of 100 μl/min). After 15 minutes, a blood sample was taken from the portal vein, centrifuged at 8000 rpm for 10 minutes, and the supernatant was stored at −80° C. GLP-1 (ng/mL) was determined using ELISA kit (Wako Pure Chemical Industries, Ltd.) within the next day. Each group consists of 12 mice, except that 11 mice were used for NCG21.

human GPR120 (hGPR120) [2] = molecular target: T1, human GPR120 (hGPR120) (Homo sapiens, UniProt Q5NUL3); assay: Determination of intracellular Ca2+ concentration (FLIPR), cell line TXGPR120; assay type: cell-based; conditions: TXGPR120 cells, maximum fluorescence intensity vs ligand concentration; read-out: [Ca^2+]/GPR120 pEC50 (converted)
T1 construct: expressed in transfected cells; doxycycline-inducible expression vector
T1 sequence (Q5NUL3 1-361): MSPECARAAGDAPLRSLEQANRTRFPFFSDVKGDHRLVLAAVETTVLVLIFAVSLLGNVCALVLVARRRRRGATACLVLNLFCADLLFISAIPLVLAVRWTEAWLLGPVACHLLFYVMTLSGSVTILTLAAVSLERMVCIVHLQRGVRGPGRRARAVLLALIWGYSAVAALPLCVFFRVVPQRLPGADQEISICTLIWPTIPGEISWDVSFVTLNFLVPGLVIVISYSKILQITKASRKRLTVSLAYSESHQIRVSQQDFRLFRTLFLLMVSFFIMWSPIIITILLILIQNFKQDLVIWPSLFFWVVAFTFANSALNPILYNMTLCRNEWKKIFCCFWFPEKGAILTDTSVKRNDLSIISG

human GPR120 (hGPR120) [3] = molecular target: T1, human GPR120 (hGPR120); assay: Determination of intracellular Ca2+ concentration (FLIPR), cell line GPR120/Flp-in; assay type: cell-based
human GPR40 (hGPR40) = molecular target: T2, human GPR40 (hGPR40) (Homo sapiens, UniProt O14842); assay: Determination of intracellular Ca2+ concentration (FLIPR), cell line TXGPR40; assay type: cell-based
T2 construct: expressed in transfected cells; doxycycline-inducible expression vector
T2 sequence (O14842 whole entry): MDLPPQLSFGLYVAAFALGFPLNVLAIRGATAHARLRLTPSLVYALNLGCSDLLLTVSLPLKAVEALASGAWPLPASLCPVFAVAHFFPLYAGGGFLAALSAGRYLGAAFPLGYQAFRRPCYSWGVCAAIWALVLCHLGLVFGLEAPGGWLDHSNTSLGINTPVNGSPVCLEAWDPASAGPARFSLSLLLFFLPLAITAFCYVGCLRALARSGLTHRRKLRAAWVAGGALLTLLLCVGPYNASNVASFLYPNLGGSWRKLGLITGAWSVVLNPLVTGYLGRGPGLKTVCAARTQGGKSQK

SMILES	Average GLP-1 concentration [1] [ng/mL]	increase of GLP-1 concentration in the portal blood relative to control DMSO [1] [times]	EC50 (human GPR120 (hGPR120) [2]) [µM]	EC50 (human GPR120 (hGPR120) [3]; GPR120/Flp-in cells, maximum fluorescence intensity vs ligand concentration, read-out: [Ca^2+]/GPR120/Flp-In pEC50 (converted)) [µM]	EC50 (human GPR40 (hGPR40); TXGPR40 cells, maximum fluorescence intensity vs ligand concentration, read-out: [Ca^2+]/GPR40 pEC50 (converted)) [µM]	melting point [°C]	EC50 (human GPR120 (hGPR120) [3]) [µM]	EC50 (human GPR40 (hGPR40)) [µM]
CC/C=C\C/C=C\C/C=C\CCCCCCCC(=O)O [LA, cis-α-linolenic acid, reference compound]	3.87	2.4	–	–	–	–	–	–
O=C(O)CCCc1ccc(OCCN(c2ccccc2)c2ccccn2)cc1 [NCG21]	4.02	2.5	2.88	1.26	18.6	98 to 99	–	–
O=C(O)CCCCc1ccc(OCCN(c2ccccc2)c2ccccn2)cc1 [NCG23, 5-{4-[2-(2-phenylpyridinylamino)ethoxy]phenyl}pentanoic acid]	–	–	–	–	–	74 to 75	9.12	7.76
